Assay results as given in paper PMC3476947 (Journal of medicinal chemistry, 2012).

Experiments:
[1] = system: MBHA DNA substrate (25 base-pair); assay: Fluorescent intercalator displacement; type: binding; details: 1.5 μM compound, FID counterscreen
[2] = target: T1, HCV NS3 helicase (NS3h_1b(con1)) (Hepatitis C virus genotype 1b, UniProt Q9WMX2); assay: biochemical
[3] = target: T1, HCV NS3 helicase (NS3h_1b(con1)); assay: MBHA with RNA substrate; type: biochemical; details: data not shown

T1 sequence (Q9WMX2 1192-1657): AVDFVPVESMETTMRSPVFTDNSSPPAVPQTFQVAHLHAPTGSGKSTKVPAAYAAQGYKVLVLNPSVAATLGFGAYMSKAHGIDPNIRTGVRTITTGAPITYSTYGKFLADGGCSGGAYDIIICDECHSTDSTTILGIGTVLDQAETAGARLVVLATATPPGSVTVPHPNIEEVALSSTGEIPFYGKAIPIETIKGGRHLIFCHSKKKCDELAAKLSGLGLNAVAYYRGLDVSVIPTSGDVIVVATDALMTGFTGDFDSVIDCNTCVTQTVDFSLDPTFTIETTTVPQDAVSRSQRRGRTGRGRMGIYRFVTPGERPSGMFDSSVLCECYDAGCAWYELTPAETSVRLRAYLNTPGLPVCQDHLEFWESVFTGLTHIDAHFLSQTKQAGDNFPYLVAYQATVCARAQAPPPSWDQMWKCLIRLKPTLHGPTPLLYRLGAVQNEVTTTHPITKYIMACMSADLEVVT

Structure (SMILES)	decrease of fluorescence of DNA-bound ethidium bromide [1]	IC50 [2]	effect on HCV helicase-catalyzed RNA unwinding [3]	effect on HCV helicase-catalyzed DNA unwinding ([2]; MBHA, up to 100 μM)
[Cl][Cd][Cl] [CdCl2]	less than 8%			
CO[C@@H]1[C@H](O)C[C@@H](O[C@@H]2C[C@H](Oc3cc4cc5c(c(O)c4c(O)c3C)C(=O)[C@@H](O[C@H]3C[C@@H](O[C@H]4C[C@@H](O[C@H]6C[C@](C)(O)[C@@H](OC(C)=O)[C@H](C)O6)[C@H](O)[C@@H](C)O4)[C@H](O)[C@@H](C)O3)[C@H]([C@H](OC)C(=O)[C@@H](O)[C@@H](C)O)C5)O[C@H](C)[C@@H]2OC(C)=O)O[C@@H]1C [Chromomycin A3]		150 ± 30 nM	no effect	
Cc1c2ccncc2c(C)c2c1[nH]c1ccccc12 [ellipticine]	less than 8%			
Cc1ccc2c(c1)sc(-c1ccc(N(C)C)cc1)[n+]2C.[Cl-] [thioflavine T]			no effect	no effect
